Structures are written as SMILES.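 Step 1: Grow cells in 96-well plates. Step 2: Expose to compound for 48 hours at 5 concentrations. Step 3: Interpolate endpoints linearly; if unreached, use highest concentration. The concentration for full growth arrest is given as TGI.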 A value given as a limit tells only on which side of the number the result lay.

Among the test systems are DMS 114 small cell lung; ACHN renal; SNB-78 CNS; KM20L2 colon; SK-MEL-28 melanoma; DMS 273 small cell lung; RXF-631 renal; M19-MEL melanoma; DLD-1 colon; LXFL 529 NSCLC; XF 498 CNS; 786-0 renal; HOP-18 NSCLC; MDA-MB-231 breast.
Holding throughout (assay): NCI anticancer screen, dose series, 48 h

As to `CC(C)C1COC(c2ccc3ccccc3c2-c2c(O[Si](C)(C)C(C)(C)C)ccc3ccccc23)=N1` (stereo unspecified), the TGI in the test with DMS 114 small cell lung is 30.9 µM; in the test with ACHN renal it was 33.2 µM; with SNB-78 CNS, 21.4 µM; in the test with KM20L2 colon it was 37.2 µM; with SK-MEL-28 melanoma, 33.8 µM; with DMS 273 small cell lung it was 42.8 µM. For the same molecule, the TGI was 61.3 µM in the test with RXF-631 renal; 33.7 µM with M19-MEL melanoma; 31.4 µM in the test on DLD-1 colon; 28.7 µM in the test with LXFL 529 NSCLC; 28.9 µM in the test with XF 498 CNS; 32.4 µM with 786-0 renal.

Take `CC(C)(C)C(=O)/C=C/c1cccc(Oc2ccccc2)c1`: the TGI was 30.2 µM in the test on HOP-18 NSCLC; 28.5 µM in the test on ACHN renal; 48.1 µM in the test on SNB-78 CNS; 28.2 µM in the test on KM20L2 colon; 34.1 µM in the test on SK-MEL-28 melanoma; greater than 100 µM in the test on RXF-631 renal. In addition, the TGI in the test with M19-MEL melanoma turned out to be 54.2 µM; in the test on DLD-1 colon, 28.5 µM; in the test with LXFL 529 NSCLC, 33.1 µM; in the test with XF 498 CNS it was 32.9 µM; in the test with 786-0 renal, 30.7 µM.

Regarding `CCN(CC)CCCNc1ncc(C)c2c1c1ccc3c(O)cccc3c1n2C`, the TGI in the test on DMS 114 small cell lung was 2.68 µM; with MDA-MB-231 breast, 3.42 µM; in the test on HOP-18 NSCLC it was 16.3 µM; in the test on ACHN renal, 12.8 µM; in the test on SNB-78 CNS, greater than 61 µM; in the test with KM20L2 colon, 10.5 µM. For the same molecule, the TGI in the test with SK-MEL-28 melanoma turned out to be 17.5 µM; with DMS 273 small cell lung, 2.14 µM; with DLD-1 colon it was 3.85 µM; in the test on LXFL 529 NSCLC, 3.06 µM; in the test on XF 498 CNS, 29.5 µM; with 786-0 renal, 2.19 µM.

`Cc1cc(=O)[nH]c(NNC(C#N)c2ccco2)n1` (stereo unspecified): the TGI in the test with DMS 114 small cell lung, with HOP-18 NSCLC, in the test with ACHN renal, in the test on SNB-78 CNS, in the test on KM20L2 colon and in the test on SK-MEL-28 melanoma was greater than 100 µM throughout. Besides, the TGI in the test on DMS 273 small cell lung, with M19-MEL melanoma, with DLD-1 colon, in the test on LXFL 529 NSCLC and in the test on 786-0 renal was greater than 100 µM in each case.

Regarding `O=C(CC(=O)N1N=C(N(c2ccccc2)c2ccccc2)CC1c1ccccc1)Nc1ccccc1` (stereo unspecified), the TGI with MDA-MB-231 breast, in the test on ACHN renal, with SK-MEL-28 melanoma and in the test on 786-0 renal was greater than 100 µM in each case.

In the case of `O=C1C=C2CC[C@H]3[C@@H]4CC[C@H](OC(=O)c5cccc6cc7ccccc7nc56)[C@H]4CC[C@@H]3[C@H]2CC1`, the TGI in the test with MDA-MB-231 breast, in the test on ACHN renal, with SK-MEL-28 melanoma and in the test with 786-0 renal was greater than 100 µM each time.

`N#CCc1nc(-c2cc3c(ccc4ccccc43)oc2=O)cs1`: the TGI is 39 µM with MDA-MB-231 breast, 79.1 µM with ACHN renal, greater than 100 µM in the test with SK-MEL-28 melanoma and 51.6 µM in the test with 786-0 renal.

Consider `O=c1c(=[n+]2ccc(=C([O-])c3ccccc3)cc2)/c(=N/S(=O)(=O)c2ccccc2)c(=O)c2ccccc12`, for which the TGI in the test on MDA-MB-231 breast is 26.1 µM; with ACHN renal, 25.3 µM; in the test on SK-MEL-28 melanoma, 8.8 µM; with 786-0 renal, 19.5 µM.

As to `O=C1OC(CS(=O)(=O)c2ccccc2)CC1O` (stereo unspecified), the TGI in the test on MDA-MB-231 breast, in the test on ACHN renal, in the test with SK-MEL-28 melanoma and with 786-0 renal was greater than 100 µM throughout.

As to `Fc1ccc2c3c([nH]c2c1)CCNC3`, the TGI in the test with MDA-MB-231 breast, in the test with ACHN renal, with SK-MEL-28 melanoma and in the test on 786-0 renal was greater than 100 µM in each case.

In the case of `COc1ccc(C2S/C(=C\c3ccccc3)C(=O)N2NC(=O)Cc2ccccc2)cc1` (stereo unspecified), the TGI in the test with HOP-18 NSCLC, in the test with ACHN renal, with SK-MEL-28 melanoma, in the test with DMS 273 small cell lung, in the test with M19-MEL melanoma and with DLD-1 colon was greater than 100 µM in each case. The TGI with LXFL 529 NSCLC and in the test with 786-0 renal was greater than 100 µM in each case.

On to `C=C(CN)CO[Si](C)(C)C(C)(C)C`, for which the TGI in the test with MDA-MB-231 breast, in the test with ACHN renal, in the test with SK-MEL-28 melanoma and in the test on 786-0 renal was greater than 100 µM in each case.

Turning to `CC(C)N1[C@@H]2CCCC[C@H]2N(C(C)C)P1(=O)C(=O)/C=C/c1ccccc1`, the TGI with MDA-MB-231 breast was found to be 8.74 µM; in the test with ACHN renal, 8.62 µM; in the test on SK-MEL-28 melanoma it was 8.87 µM; in the test with 786-0 renal, 3.36 µM.

Turning to `CCCc1c(C(=O)OCC)[nH]c(C(=O)CCC(=O)c2[nH]c(C(=O)OCC)c(CCC)c2C(=O)OCC)c1C(=O)OCC`, the TGI with DMS 114 small cell lung, in the test with HOP-18 NSCLC, in the test on ACHN renal, in the test with SNB-78 CNS, with KM20L2 colon and in the test with SK-MEL-28 melanoma was greater than 100 µM each time. Besides, the TGI in the test on DMS 273 small cell lung, in the test on M19-MEL melanoma, with DLD-1 colon, with LXFL 529 NSCLC, with XF 498 CNS and in the test on 786-0 renal was greater than 100 µM each time.

With `N#CC(c1ccccc1)N(CCOCCOCCN(C(=O)c1cccc2ccccc12)C(C#N)c1ccccc1)C(=O)c1cccc2ccccc12` (stereo unspecified), the TGI in the test on MDA-MB-231 breast, in the test on ACHN renal, with SK-MEL-28 melanoma and in the test with 786-0 renal was greater than 100 µM throughout.

For the molecule `O=C(N/N=C(\c1nc2ccc(Cl)cc2[nH]c1=O)C(O)c1ccccc1Cl)c1ccncc1` (stereo unspecified), the TGI in the test on DMS 114 small cell lung, in the test on HOP-18 NSCLC, with ACHN renal, in the test on KM20L2 colon, in the test with SK-MEL-28 melanoma and in the test with DMS 273 small cell lung was greater than 100 µM in each case. Further, the TGI with RXF-631 renal, in the test with M19-MEL melanoma, with DLD-1 colon, in the test with LXFL 529 NSCLC and with 786-0 renal was greater than 100 µM in each case.

Regarding `COc1cc2c(cc1OC)C(=O)/C(=C/c1ccc([N+](=O)[O-])cc1)CC2`, the TGI with MDA-MB-231 breast, in the test on ACHN renal, in the test on SK-MEL-28 melanoma and in the test with 786-0 renal was greater than 10 µM each time.

As for `CCOC(=O)c1cc(Br)c(-c2onc(C)c2Br)n1C`, the TGI in the test with MDA-MB-231 breast was greater than 100 µM; with ACHN renal, greater than 100 µM; in the test with SK-MEL-28 melanoma, greater than 100 µM; with 786-0 renal, 86.1 µM.

The values are drawn from PubChem BioAssay (NCI).
